Results from article PMC8333053, “Synthesis and biological screening of new thiadiazolopyrimidine-based polycyclic compounds” (Scientific Reports, 2021).

Tests used:
Format in all cases: cell-based
[1] = tested on: Chromobacterium violaceum (ATCC 12472); assay: Antiquorum-sensing assay (violacein pigment inhibition); details: Chromobacterium violaceum, ATCC12472, 48 h, read-out: Diameter of quorum-sensing inhibition C. violaceum
Excerpt: The synthesized thiadiazolopyrimidine-based compounds were screened for their antiquorum-sensing (anti-QS) inhibition activity by the Chromobacterium violaceum (ATCC 12472) technique using catechin as the standard compound[28]–[30]. The QS technique of C. violaceum was remarked by the detection of violacein (violet pigment)[31],[32]. Meanwhile, the reactivity of the synthesized thiadiazolopyrimidine-containing derivatives as drugs depends on their efficiency to inhibit the liberation of violacein during the QS technique. The QS inhibition was determined by the following equation: QS inhibition (mm) = (r2 − r1), where r1 is the inhibition radius of the bacterial growth and r2 is the inhibition radius for growth as well as the release of the pigment.
The anti-QS inefficiency was evaluated using the previous technique mentioned in the literature.
The culture was prepared by growing Ch. violaceum ATCC 12472 in LB broth and incubated for 16–18 h in an orbital incubator running at 28°C and 150 rpm. The culture was then adjusted to 0.5 McFarland standard (ca. 1 × 10^6 CFU/mL). Ch. violaceum (50 µL) was inoculated into LB agar (50 mL), poured into plates, and solidified. Wells were made in LB agar medium using cork borer. The tested compounds were dissolved in DMSO 100% in Eppendorf tubes for final concentration of 5 mg/mL, and 50 µL of the test solution was applied into the wells. The positive control (catechin) was also added at the same concentration and volume to each plate. In addition, DMSO (control solvent) was added to each plate. […] Bacterial growth inhibition by the tested compounds was measured as radius (r1) in mm, while both growth and pigment inhibition was measured as radius (r2) in mm. The pigment inhibition (QS inhibition) was determined by subtracting bacterial growth inhibition (r1) from the total radius (r2); thus, QS inhibition = (r2 - r1) in mm.

PC3 = assay: MTT cytotoxicity assay; details: Homo sapiens, PC-3, 72 h, 3 days
Protocol: (§1) The cytotoxicity of the prepared tri-and tetra-cyclic thiadiazolopyrimidine compounds were examined toward various cancer cell lines, such as liver and breast cancer (MCF-7), prostate cancer (PC3), laryngeal carcinoma (Hep-2), carcinoma (HepG2), and standard normal fibroblast cells (WI38) using the MTT assay[33] at the National Research Centre (Egypt). The cytotoxicity (Table 3) toward 50% inhibition of the cell viability (IC50 values) was assessed using 5-fluorouracil (5-Fu) as the standard anticancer drug.
(§2) The synthesized compounds were subjected to the MTT cytotoxicity assay on the basis of the cited literature.
(§3) MTT cytotoxicity assay: The technical method of MTT assay depends on the reduction of yellow 3-(4,5-methyl-2-thiazolyl)-2,5-diphenyl-2H-tetrazolium bromide (MTT) into purple formazan product, mainly by mitochondrial reductase activity inside the living cells. The cells used in cytotoxicity assay were cultured in RPMI 1640 medium supplemented with 10% fetal calf serum. Cells suspended in the medium (2×10^4 cells/mL) were plated in 96-well culture plates and incubated at 37 °C in a 5% CO2 incubator for 12 hours. The tested sample (2 μL) was added to the cells (2×10^4) in 96-well plates and cultured at 37 °C for 3 days. The cultured cells were mixed with 20 μL of MTT solution and incubated for 4 hours at 37 °C. The supernatant was carefully removed from each well, the formazan crystals were dissolved after addition of DMSO (100 μL) for each well to form the cellular reduction of MTT. After mixing with a mechanical plate mixer, the absorbance of each well was measured by a microplate reader using a test wavelength of 570 nm. The results were expressed as the IC50 values, which inducing 50% inhibition of cell growth of the treated cells when compared to the growth of control cells.

MCF-7 = assay: MTT cytotoxicity assay; details: Homo sapiens, MCF7, 72 h, 3 days
Protocol: as §1, §2, §3

HepG2 = assay: MTT cytotoxicity assay; details: Homo sapiens, HepG2, 72 h, 3 days
Protocol: as §1, §2, §3

Hep-2 = assay: MTT cytotoxicity assay; details: Homo sapiens, HEp-2, 72 h, 3 days
Protocol: as §1, §2, §3

| SMILES | zone of inhibition at 5000 µg/mL [1] [mm] | IC50 (PC3) [µM] | IC50 (MCF-7) [µM] | IC50 (HepG2) [µM] | IC50 (Hep-2) [µM] |
| --- | --- | --- | --- | --- | --- |
| CC(=O)C1=C(C)OC(N)=C2C(=O)N=C3SC=NN3C12 (stereo not drawn) [Compound 8a, 9-Acetyl-6-amino-8-methyl-5H,9aH-pyrano[3,4-e][1,3,4]thiadiazolo[3,2-a]pyrimidin-5-one] | 3 | 34.4 ± 0.64 | 33.42 ± 0.23 | 37.12 ± 0.23 | 22.61 ± 0.21 |
| Cc1nn(-c2ccccc2)c2c1C1C(=C(N)O2)C(=O)N=C2SC=NN21 (stereo not drawn) [Compound 10b, 6-Amino-10-methyl-8-phenyl-8,10b-dihydro-5H-pyrazolo[4′,3′:5,6]pyrano[3,4-e][1,3,4]thiadiazolo[3,2-a]pyrimidin-5-one] | 9 | 27.3 ± 0.53 | 27.4 ± 0.49 | 37.6 ± 1.26 | 28.8 ± 1.8 |
| COc1ccc(N=Nc2c(O)nn3c(N)c4c(=O)nc5scnn5c4nc23)cc1 [Compound 17b, 6-Amino-9-hydroxy-10-(4-methoxyphenylazo)-5H-pyrazolo[1′,5′:1,2]pyrimido[5,4-e][1,3,4]thiadiazolo[3,2-a]pyrimidin-5-one] | 12 | 36.8 ± 0.43 | 8.84 ± 0.17 | 33.54 ± 0.25 | 19 ± 0.4 |
| Nc1n[nH]c2c1c(=O)nc1scnn12 [Compound 4, 3-Aminopyrazolo[4,3-e][1,3,4]thiadiazolo[3,2-a]pyrimidin-4(1H)-one] | < 2 | 72.3 ± 2.18 | 61.2 ± 1.11 | 15.4 ± 0.45 | 78.4 ± 2.2 |
| Cc1n[nH]c2c1C1C(=C(N)O2)C(=O)N=C2SC=NN21 (stereo not drawn) [Compound 10a, 6-Amino-10-methyl-8,10b-dihydro-5H-pyrazolo[4′,3′:5,6]pyrano[3,4-e][1,3,4]thiadiazolo[3,2-a]pyrimidin-5-one] | 13 | 40.11 ± 0.36 | 24.2 ± 0.52 | 42 ± 1.24 | 34 ± 0.46 |
| Nc1c2c(=O)nc3scnn3c2nc2nncn12 [Compound 12, 6-Amino-5H-[1,2,4]triazolo[4′,3′:1,2]pyrimido[5,4-e][1,3,4]thiadiazolo[3,2-a]pyrimidin-5-one] | 3 | 47.4 ± 0.89 | 36.92 ± 0.29 | 44.3 ± 1.35 | 34.1 ± 0.97 |
| CC1=C(C#N)C2C(=C(N)O1)C(=O)N=C1SC=NN12 (stereo not drawn) [Compound 9a, 6-Amino-9-cyano-8-methyl-5-oxo-5H,9aH-pyrano[3,4-e][1,3,4]thiadiazolo[3,2-a]pyrimidine] | 11 | 46.4 ± 1.07 | 22.7 ± 0.29 | 33.2 ± 0.36 | 20 ± 0.24 |
| N#Cc1c(N)nc(N)c2c(=O)nc3scnn3c12 [Compound 6, 6,8-Diamino-9-cyano-5-oxo-5H-pyrido[3,4-e][1,3,4]thiadiazolo[3,2-a]pyrimidine] | < 2 | 66.3 ± 2.49 | 49.6 ± 1.25 | 62.2 ± 1.07 | 57.6 ± 1.72 |
| N#Cc1cn2ncsc2nc1=O [Compound 3, 6-cyano-7-oxo-7H-[1,3,4]thiadiazolo[3,2-a]pyrimidine] | < 2 | 92.8 ± 3.48 | 78 ± 1.37 | 82.3 ± 2.19 | 87.5 ± 2.35 |
| Nc1c2c(=O)nc3scnn3c2nc2nnnn12 [Compound 11, 6-Amino-5H-[1,3,4]thiadiazolo[2′,3′:2,3]pyrimido[4,5-d]tetrazolo[1,5-a]pyrimidin-5-one] | 5 | 38.1 ± 0.49 | 31.8 ± 0.67 | 42.2 ± 1.17 | 38.8 ± 0.74 |
| Cc1ccc(N=Nc2c(O)nn3c(N)c4c(=O)nc5scnn5c4nc23)cc1 [Compound 17a, 6-Amino-9-hydroxy-10-(4-methylphenylazo)-5H-pyrazolo[1′,5′:1,2]pyrimido[5,4-e][1,3,4]thiadiazolo[3,2-a]pyrimidin-5-one] | 11 | 39.4 ± 2.01 | 9.36 ± 0.23 | 38.27 ± 0.17 | 29.58 ± 0.15 |
| Cc1ccc(N=Nc2c(N)nn3c(N)c4c(=O)nc5scnn5c4nc23)cc1 [Compound 16a, 6,9-Diamino-10-(4-methylphenylazo)-5H-pyrazolo[1′,5′:1,2]pyrimido[5,4-e][1,3,4]thiadiazolo[3,2-a]pyrimidin-5-one] | 9 | 44.2 ± 0.94 | 7.53 ± 0.08 | 37.6 ± 1.26 | 32.7 ± 0.36 |
| Nc1nn(-c2ccccc2)c2c1c(=O)nc1scnn12 [Compound 5, 3-Amino-1-phenylpyrazolo[4,3-e][1,3,4]thiadiazolo[3,2-a]pyrimidin-4(1H)-one] | < 2 | 61.8 ± 1.68 | 54.8 ± 1.48 | 19.2 ± 0.52 | 61.2 ± 1.51 |
| COc1ccc(N=Nc2c(N)nn3c(N)c4c(=O)nc5scnn5c4nc23)cc1 [Compound 16b, 6,9-Diamino-10-(4-methoxyphenylazo)-5H-pyrazolo[1′,5′:1,2]pyrimido[5,4-e][1,3,4]thiadiazolo[3,2-a]pyrimidin-5-one] | 12 | 47.9 ± 1.48 | 5.69 ± 0.39 | 42.3 ± 0.75 | 38.2 ± 0.57 |
| CC1=C(C(=O)c2ccccc2)C2C(=C(N)O1)C(=O)N=C1SC=NN12 (stereo not drawn) [Compound 8b, 6-Amino-9-benzoyl-8-methyl-5H,9aH-pyrano[3,4-e][1,3,4]thiadiazolo[3,2-a]pyrimidin-5-one] | 12 | 30.6 ± 0.57 | 14.7 ± 0.16 | 21.62 ± 0.14 | 14.7 ± 0.43 |
| CCOC(=O)c1c(N)nc(N)c2c(=O)nc3scnn3c12 [Compound 7, Ethyl 6,8-diamino-5-oxo-5H-pyrido[3,4-e][1,3,4]thiadiazolo[3,2-a]pyrimidine-9-carboxylate] | < 2 | 61.8 ± 1.35 | 39.8 ± 0.68 | 36.73 ± 0.17 | 34.2 ± 0.93 |
| N#CC1=C(c2ccccc2)OC(N)=C2C(=O)N=C3SC=NN3C12 (stereo not drawn) [Compound 9b, 6-Amino-9-cyano-5-oxo-8-phenyl-5H,9aH-pyrano[3,4-e][1,3,4]thiadiazolo[3,2-a]pyrimidine] | 3 | 38.4 ± 0.89 | 12.8 ± 0.26 | 26.78 ± 0.18 | 11.7 ± 0.36 |
| Cc1cc2nc3c(c(N)n2n1)c(=O)nc1scnn13 [Compound 13, 6-Amino-9-methyl-5H-pyrazolo[1′,5′:1,2]pyrimido[5,4-e][1,3,4]thiadiazolo[3,2-a]pyrimidin-5-one] | 5 | 35.6 ± 0.88 | 57.6 ± 1.4 | 28.6 ± 0.41 | 30.2 ± 0.59 |
